Laboratory results: patent US20210196676A1, “TREATMENT OF VIRAL INFECTIONS AND VIRALLY ASSOCIATED LESIONS WITH SEQUITERPENE LACTONES” (The Board of Regents of the University of Texas System, priority 2018, published 2021)
pIC50: −log10 of the molar value.

Assays:
[1] = system: ankle wart; assay: Topical treatment of a large ankle wart, case of a person; format: in vivo, human
[2] = system: warts; details: human, in vivo; cited from earlier work
[3] = system: HPV; details: after three months of treatment, confirmed by smears and biopsies; cited from earlier work
[4] = in vitro; details: human
[5] = in vitro; details: human; remark: listed apart in the source

CC(=O)Oc1ccccc1C(=O)O [crushed aspirin, aspirin]
wart after treatment was stopped ([1]; treatment stopped): regrew | wart size ([1]; under a commercial band aid for several weeks): slightly reduced in size

O=[N+]([O-])[O-].[Ag+] [silver nitrate, Silver nitrate]
improvement in warts [2]: 26%

Cc1cccc(C)c1OCC(=O)N[C@@H](Cc1ccccc1)[C@@H](O)C[C@H](Cc1ccccc1)NC(=O)[C@H](C(C)C)N1CCCNC1=O [Lopinavir]
women with high-grade disease having normal cervical conditions [3]: 82.6%

C=C1C(=O)O[C@@H]2C[C@@H](C)[C@@H]3C=CC(=O)[C@@]3(C)[C@@H](O)[C@H]12 (racemic) [H. tox, (±)-4-Hydroxy-4a,8-dimethyl-3,3a,4a,7a,8,9,9a-octahydroazuleno[6,5-b]furan-2,5-dione]
pIC50 [4]: ~6.00 | pIC50 [5]: ~6.00
